Reference: ChEMBL document CHEMBL4689842, “EUbOPEN Chemogenomics Library wave 1” (2021)

How the values were obtained:
Type in all cases: toxicity, cell-based
HEK-293T = test: Incucyte cell viability with HEK293T; conditions: human, 10 µM, compound concentration 10 uM
Fibroblast = test: Incucyte cell viability with human fibroblast; conditions: 10 µM, compound concentration 10 uM
U2OS = test: Incucyte cell viability with U2OS; conditions: human, 10 µM, compound concentration 10 uM
[1] = 0 h, replicate number 1, timepoint 0 hours
[2] = 6 h, replicate number 1, timepoint 6 hours
[3] = 6 h, replicate number 2, timepoint 6 hours
[4] = 12 h, replicate number 1, timepoint 12 hours
[5] = 18 h, replicate number 1, timepoint 18 hours
[6] = 24 h, replicate number 1, timepoint 24 hours
Further: filed as whole numbers so only -1 and 0 and 1 occur.

`CCC(=O)NC1Cc2ccccc2C(c2ccccc2)C1` (configuration not stated) was tested, and the “Growth Rate” value (HEK-293T; [1]) was 0, the “Growth Rate” value (HEK-293T; [2]) was 1 and the “Growth Rate” value (HEK-293T; [3]) was 0. For the same compound, the “Growth Rate” value (HEK-293T; [4]) was 0, the “Growth Rate” value (HEK-293T; [5]) was 0 and the “Growth Rate” value (HEK-293T; [6]) was 0. For the same compound, the “Growth Rate” value (Fibroblast; [1]) was 0, the “Growth Rate” value (Fibroblast; [2]) was 0 and the “Growth Rate” value (Fibroblast; [4]) was 0. The “Growth Rate” value (Fibroblast; [5]) was 0, the “Growth Rate” value (Fibroblast; [6]) was 0 and the “Growth Rate” value (U2OS; [1]) was 0. For the same compound, the “Growth Rate” value (U2OS; [3]) was 0, the “Growth Rate” value (U2OS; [4]) was 1 and the “Growth Rate” value (U2OS; [5]) was 1. The “Growth Rate” value (U2OS; 18 h, replicate number 2, timepoint 18 hours) was 0 and the “Growth Rate” value (U2OS; [6]) was 0.
